Source: patent US12365687B2 (Hoffmann-La Roche Inc., priority 2021, dated 2025)
pKi: −log10 of the molar value.

Legend:
[1] = target: human GABAA α5β2γ1 receptor (Homo sapiens (Human), UniProt P31644+Q8N1C3); assay: Radioligand binding assay for γ1-containing GABAA subtypes, [3H]RO7239181 competition (α5β2γ1)
Procedure: (§1) The affinity of compounds at GABAA γ1 subunit-containing receptors was measured by competition for [^3H]RO7239181 (67.3 Ci/mmol; Roche) binding to membranes from HEK293F cells (ThermoFisher R79007) expressing human (transiently transfected) receptors of composition α5β2γ1, α2β2γ1, α1β2γ1.
(§2) Harvested pellets from HEK293F cells expressing the different GABAA receptor subtypes were resuspended in Mannitol Buffer pH 7.2-7.4 (Mannitol 0.29 M, Triethylamine 10 mM, Acetic acid 10 mM, EDTA 1 mM plus protease inhibitors (20 tablets Complete, Roche Diagnostics Cat. No. 05 056 489 001 per liter)), washed two times and then resuspended at 1:10 to 1:15 dilution in the same buffer. Cell disruption was performed by stirring the suspension in a Parr vessel #4637 at 435 psi for 15 minutes, and then the suspensions were centrifuged at 1000×g for 15 minutes at 4° C. (Beckman Avanti J-HC; rotor JS-4.2). The supernatant (S1) was transferred in a 2 l Schott flask and the pellet (P1) was resuspended with Mannitol Buffer up to 175 ml. The resuspended pellet was transferred into a 250 ml Corning centrifugal beaker and centrifuged at 1500×g for 10 minutes at 4° C. (Beckman Avanti J-HC; rotor JS-4.2). The supernatant (S1) was then transferred in the 2 l Schott flask and the pellet was discarded. The supernatants (S1) were centrifuged in 500 ml Beckman polypropylene centrifugal beaker at 15′000×g for 30 minutes at 4° C. (Beckman Avanti J-20 XP; rotor JLA-10.500). The pellet (P2) was resuspended with Mannitol Buffer 1:1 and frozen at −80° C. The supernatant (S2) was centrifuged in 100 ml Beckman polypropylene centrifugal tubes at 48000×g for 50 minutes at 4° C. (Beckman Avanti J-20 XP; rotor JA-18). The supernatant (S3) was discarded and the pellet (P3) was resuspended with 1:1 Mannitol Buffer. The P2 and P3 protein concentration was determined with the BIORAD Standard assay method with bovine serum albumin as standard and measured on the NANO-Drop 1000. The membrane suspension was aliquots (500 μl per tube) and stored at −80° C. until required.
(§3) Membrane homogenates were resuspended and polytronised (Polytron PT1200E Kinematica AG) in Potassium Phosphate 10 mM, KCl 100 mM binding buffer at pH 7.4 to a final assay concentration determined with a previous experiment.
(§4) Assays were incubated to equilibrium for 1 hour at 4° C. and then, membranes were filtered onto unifilter (96-well white microplate with bonded GF/C filters preincubated 20-50 minutes in 0.3% Polyethylenimine) with a Filtermate 196 harvester (Packard BioScience) and washed 4 times with cold Potassium Phosphate 10 mM pH 7.4, KCl 100 mM binding buffer. After anhydrousing, filter-retained radioactivity was detected by liquid scintillation counting. Ki values were calculated using Excel-Fit (Microsoft) and are the means of two determinations.

[2] = target: human GABAA α2β2γ1 receptor (Homo sapiens (Human), UniProt P47869+Q8N1C3); assay: Radioligand binding assay for γ1-containing GABAA subtypes, [3H]RO7239181 competition (α2β2γ1)
Procedure: as §1, §2, §3, §4

[3] = target: human GABAA α1β3γ2 receptor (Homo sapiens (Human), UniProt P14867+P18507); assay: Radioligand binding assay for γ2-containing GABAA subtypes, [3H]Flumazenil competition (α1β3γ2); settings: for γ2/γ1 Selectivity Ratio: Ki α1β3γ2 (nM)/Ki α2β2γ1 (nM); for LogSel: Log[Ki α1β3γ2 (nM)/Ki α2β2γ1 (nM)]
Procedure: The affinity of compounds at GABAA γ2 subunit-containing receptors was measured by competition for [^3H]Flumazenil (81.1 Ci/mmol; Roche) binding to HEK293F cells expressing human (transiently transfected) receptors of composition α1β3γ2.
Harvested pellets from HEK293F cells expressing the different GABAA γ2 receptor subtypes were resuspended in Mannitol Buffer pH 7.2-7.4 and processed as described above for the cells expressing the GABAA γ1 subunit-containing receptors.
Assays were incubated to equilibrium for 1 hour at 4° C. and harvested onto GF/C uni-filters (Packard) by filtration using a Packard harvester and washing with ice-cold wash buffer (50 mM Tris; pH 7.5). After anhydrousing, filter-retained radioactivity was detected by liquid scintillation counting. Ki values were calculated using Excel-Fit (Microsoft) and are the means of two determinations.

[4] = target: α2β2γ1 GABAA receptor subtype (Homo sapiens (Human), UniProt P47869+Q8N1C3); assay: Two-electrode voltage clamp electrophysiology in Xenopus oocytes expressing GABAA receptors (modulation of GABA EC20 current); format: cell-based; settings: for Efficacy (GABA)%: % modulation of GABA EC20 = 100*(Fold increase-1), α2β2γ1 oocytes, compound at approx. 30-fold Ki; for Fold increase h-GABA-A α2β2γ1 oocyte @ 30-fold Ki: Xenopus oocytes expressing α2β2γ1, compound at approx. 30-fold its Ki α2β2γ1, GABA EC20 current; for potentiation of the GABA-induced current: α2β2γ1 GABAA receptor subtype expressing oocytes, GABA EC20
Procedure: Xenopus laevis oocytes at maturation stages V-VI were used for the expression of cloned mRNA encoding GABAA receptor subunits. Oocytes ready for RNA micro-injection were bought from Ecocyte, Castrop-Rauxel, Germany and stored in modified Barth's medium (composition in mM: NaCl 88, KCl 1, NaHCO3 2.4, HEPES 10, MgSO4 0.82, CaNO3 0.33, CaCl2 0.33, pH=7.5) at 20° C. until the experiment.
Oocytes were plated in 96-well plates for microinjection using the Roboinject automated instrument (MultiChannelSystems, Reutlingen, Germany). Approximately 50 nL of an aqueous solution containing the RNA transcripts for the subunits of the desired GABAA receptor subtype was injected into each oocyte. […] Oocytes were kept in modified Barth's medium (composition in mM: NaCl 88, KCl 1, NaHCO3 […], HEPES 10, MgSO4 0.82, CaNO3 0.33, CaCl2 0.33, pH=7.5) at 20° C. until the experiment.
Electrophysiological experiments were performed using the Roboocyte instrument (MultiChannelSystems, Reutlingen, Germany) on days 3 to 5 after the micro-injection of mRNA. During the experiment the oocytes were constantly superfused by a solution containing (in mM) NaCl 90, KCl 1, HEPES 5, MgCl2 1, CaCl2 1 (pH 7.4). Oocytes were impaled by two glass microelectrodes (resistance: 0.5-0.8 MΩ) which were filled with a solution containing KCl 1M+K-acetate 1.5 M and voltage-clamped to −80 mV. The recordings were performed at room temperature using the Roboocyte two-electrode voltage clamp system (Multichannelsystem). After an initial equilibration period of 1.5 min GABA was added for 1.5 min at a concentration evoking approximately 20% of a maximal current response (EC20). After another rest interval of 2.5 min GABA was again added evoking a response of similar amplitude and shape. […] Current traces were recorded at a digitization rate of 10 Hz during and shortly before and after the GABA application.
Each compound and concentration was tested on at least 3 oocytes. Different oocytes were used for different compound concentrations.
For the analysis, the digitized current traces of the first and second GABA response were superimposed and, if necessary, rescaled to equal maximal amplitudes. The ratio between the two responses during the time interval of test compound application was calculated point by point. The extremum of the resulting “ratio trace” was taken as the efficacy (“Fold increase”) of the compound expressed as “% modulation of GABA EC20” (100*(Fold increase-1)).

[5] = Ki h-GABAA α2β2γ1, [3H]RO7239181 competition binding, human GABAA α2β2γ1
[6] = Ki h-GABAA α2β2γ1, displacement of [3H]RO7239181, membranes of HEK293F cells expressing human receptors, means of two determinations
[7] = Ki h-GABAA α2β2γ1, Table 3, reference compounds

Row | SMILES | pKi [1] | pKi [2, 5] | pKi [2, 6] | pKi [3] | γ2/γ1 Selectivity Ratio [3] | LogSel [3] | Efficacy (GABA)% [4] [%] | Fold increase h-GABA-A α2β2γ1 oocyte @ 30-fold Ki [4] | LogSel ([3]; Table 3) | pKi [2, 7] | γ2/γ1 Selectivity Ratio ([3]; Table 3) | potentiation of the GABA-induced current [4] [%]
1 | C[C@@H]1N=C(c2ncccc2F)c2c(ccc(Cl)c2Cl)-n2nc(C(=O)NC3CC3)nc21 [Example 88, (4S)-7,8-dichloro-N-cyclopropyl-6-(3-fluoro-2-pyridyl)-4-methyl-4H-[1,2,4]triazolo[1,5-a][1,4]benzodiazepine-2-carboxamide] | 8.00 | 7.04 | 7.04 | 5.55 | 31.2 | 1.49 | 162 | 2.62 | – | – | – | –
2 | Cc1cn2c(n1)[C@H](C)N=C(c1ncccc1F)c1c-2ccc(C(F)(F)F)c1Cl [Example 139, (4S)-7-chloro-6-(3-fluoro-2-pyridyl)-2,4-dimethyl-8-(trifluoromethyl)-4H-imidazo[1,2-a][1,4]benzodiazepine] | 8.26 | 7.51 | 7.51 | 5.51 | 99.6 | 2.00 | 149 | 2.49 | – | – | – | –
3 | C[C@@H]1N=C(c2c(F)cccc2F)c2c(ccc(Cl)c2Cl)-n2nc(C(=O)N3CC4(CCCCO4)C3)nc21 [Example 96, [(4S)-7,8-dichloro-6-(2,6-difluorophenyl)-4-methyl-4H-[1,2,4]triazolo[1,5-a][1,4]benzodiazepin-2-yl]-(5-oxa-2-azaspiro[3.5]nonan-2-yl)methanone] | 8.58 | 8.19 | 8.19 | 6.03 | 145.4 | 2.16 | 52 | 1.52 | – | – | – | –
4 | Cc1nnc2n1-c1ccc(Cl)cc1C(c1ccccc1)=NC2 [Alprazolam, reference compound] | – | – | – | – | – | – | – | – | −2.3 | – | – | –
5 | CN(C)C(=O)c1nc2n(n1)-c1ccc(Cl)cc1C(c1ccccc1F)=NC2 [RE-A, reference compound] | – | – | – | 7.45 | – | – | – | – | – | 6.56 | 0.13 | –
6 | C[C@@H]1N=C(c2ncccc2F)c2c(ccc(C(F)(F)F)c2Cl)-n2nc(C(=O)NCCF)nc21 [Example 152, (4S)-7-chloro-N-(2-fluoroethyl)-6-(3-fluoro-2-pyridyl)-4-methyl-8-(trifluoromethyl)-4H-[1,2,4]triazolo[1,5-a][1,4]benzodiazepine-2-carboxamide] | 7.69 | 7.05 | 7.05 | < 4.52 | 333.7 | 2.52 | – | – | – | – | – | –
7 | C[C@@H]1N=C(c2c(F)cccc2F)c2c(ccc(C(F)(F)F)c2Cl)-n2nc(C(=O)N3CC(OC(F)F)C3)nc21 [Example 51, [3-(difluoromethoxy)azetidin-1-yl]-[(4S)-7-chloro-6-(2,6-difluorophenyl)-4-methyl-8-(trifluoromethyl)-4H-[1,2,4]triazolo[1,5-a][1,4]benzodiazepin-2-yl]methanone] | – | – | – | 5.81 | 53.3 | 1.73 | – | – | – | – | – | –
8 | Cc1ncc2n1-c1ccc(Cl)cc1C(c1ccccc1F)=NC2 [Midazolam, reference compound] | – | – | – | – | – | – | – | – | −2.2 | – | – | ~60
9 | Cc1nnc2n1-c1ccc(Cl)cc1C(c1ccccc1Cl)=NC2 [Triazolam, reference compound] | – | – | – | – | – | – | – | – | −1.5 | – | – | ~60
10 | CN1C(=O)CN=C(c2ccccc2F)c2cc([N+](=O)[O-])ccc21 [Flunitrazepam, reference compound] | – | – | – | – | – | – | – | – | – | – | – | ~60
11 | CCOC(=O)c1nc2n(n1)-c1ccc(Cl)cc1C(c1ccccc1F)=NC2 [RE-B, reference compound] | – | – | – | 8.47 | – | – | – | – | – | 7.74 | 0.18 | –
12 | Fc1cccc(F)c1C1=NCc2nc(C(F)F)cn2-c2ccc(Br)c(Cl)c21 [Example 3, 8-bromo-7-chloro-2-(difluoromethyl)-6-(2,6-difluorophenyl)-4H-benzo[f]imidazo[1,2-a][1,4]diazepine] | 8.89 | 7.52 | 7.52 | 6.34 | 15.0 | 1.18 | – | – | – | – | – | –
